Data published in patent JP2011231022A, “イミダゾロン誘導体” (Ajinomoto Co Inc, priority 2010, dated 2011).
Like-named read-outs stand apart in the source and are kept apart here.

How the values were obtained:
aorta ring (大動脈リング) [1] = experiment: Involvement of PI3K in relaxation of isolated rat aorta rings, wortmannin pretreatment (Example 4); format: cell-based; conditions: for relaxation rate: wortmannin (WO) 200 nM, 15 min pretreatment
aorta ring (大動脈リング) [2] = experiment: Endothelium-derived NO mechanism study in isolated rat aorta rings: endothelium removal and inhibitors (Example 3); format: cell-based; conditions: for relaxation of phenylephrine contraction with C-PTIO: NO scavenger C-PTIO 300 μM; for relaxation of phenylephrine contraction with C-PTIO / relaxation of phenylephrine contraction with L-NAME / relaxation of phenylephrine contraction with indomethacin / relaxation of phenylephrine contraction with ODQ: 15 min pretreatment; for relaxation of phenylephrine contraction with L-NAME: NOS inhibitor L-NAME 100 μM; for vasorelaxing action after endothelium removal: aorta ring with endothelium mechanically removed; for relaxation of phenylephrine contraction with indomethacin: cyclooxygenase inhibitor indomethacin 10 μM; for relaxation of phenylephrine contraction with ODQ: soluble guanylate cyclase inhibitor ODQ 1 μM
[3] = tested on: Akt serine 473 residue (Aktセリン473残基); experiment: Phosphorylation of Akt serine 473 in isolated rat thoracic aorta rings (Examples 5 and 6); format: cell-based; conditions: 5 min; for enhancement of Akt serine 473 phosphorylation: without wortmannin
[4] = tested on: rat isolated blood vessel (ラット摘出血管); experiment: EC50 of vasorelaxation in phenylephrine-precontracted isolated rat aorta rings (Example 2); format: cell-based
[5] = tested on: eNOS serine 1177 residue (eNOSセリン1177残基); experiment: Phosphorylation of eNOS serine 1177 in isolated rat thoracic aorta rings (Examples 5 and 6); format: cell-based; conditions: 5 min; for enhancement of eNOS serine 1177 phosphorylation: without wortmannin
[6] = tested on: rat isolated blood vessel, thoracic aorta ring (ラット摘出血管、大動脈リング); experiment: Vasorelaxation of phenylephrine-precontracted isolated rat thoracic aorta rings (Example 1, screening); format: cell-based; conditions: 100 μM; 1 μM phenylephrine precontraction; endothelium intact
[7] = Oral absorption in fasted male ICR mice, plasma concentration by LC/MS (Example 7); format: in vivo; conditions: mouse (ICR male, fasted), 100 mg/kg oral
[8] = tested on: phenylephrine-induced hypertensive model rat (フェニレフリン昇圧モデルラット); experiment: Hypotensive action in phenylephrine-induced hypertensive model rats (Example 8); format: in vivo; conditions: Wistar male rat; 40 mg/kg intravenous; phenylephrine 75 μg/kg/min
[9] = 100〜500 μM, wortmannin (WO) 200 nM, 20 min pretreatment
[10] = concentration giving 50% relaxation of phenylephrine contraction, 1〜100 μM, logistic method, read-out: EC50
[11] = 100 μM or 300 μM, wortmannin (WO) pretreatment

N[C@@H](CCCNC1=NC(CCO)C(=O)N1)C(=O)O (stereo partly shown) [I−3, Nδ−[5−ヒドロ−5−(2−ヒドロキシエチル)−4−イミダゾロン−2−イル]−L−オルニチン]
relaxation rate (aorta ring (大動脈リング) [1]; 100 μ (so in the source)): 3±3% | inhibition at 100 µM (aorta ring (大動脈リング) [1]; Rattus norvegicus, 100 μ (so in the source), untreated control (no wortmannin), read-out: relaxation rate): 62 ± 8% | relaxation of phenylephrine contraction with C-PTIO (aorta ring (大動脈リング) [2]): 血管の弛緩が大幅に減弱した | relaxation of phenylephrine contraction with L-NAME (aorta ring (大動脈リング) [2]): 血管の弛緩がほとんど見られなかった | vasorelaxing action after endothelium removal (aorta ring (大動脈リング) [2]): 完全に消失した | relaxation of phenylephrine contraction with indomethacin (aorta ring (大動脈リング) [2]): 血管の弛緩に全く影響を与えなかった | relaxation of phenylephrine contraction with ODQ (aorta ring (大動脈リング) [2]): 血管の弛緩が大幅に減弱した | enhancement of Akt serine 473 phosphorylation ([3]; 100〜500 μM): Aktセリン473残基のリン酸化亢進作用を示した | Akt serine 473 phosphorylation after wortmannin pretreatment [3, 9]: 完全に抑制され | EC50 [4, 10]: 71 µM | enhancement of eNOS serine 1177 phosphorylation ([5]; 100〜500 μM): 濃度依存的にeNOSセリン1177残基のリン酸化亢進作用を示した | eNOS serine 1177 phosphorylation after wortmannin pretreatment [5, 9]: 完全に抑制された

OC[C@H]1OC(O)[C@H](O)[C@@H](O)[C@@H]1O (stereo partly shown) [グルコース]
vasodilating action (relaxation of phenylephrine contraction) [6]: 血管拡張作用が見出せなかった

N[C@@H](CCCNC1=NC(CC(O)C(O)CO)C(=O)N1)C(=O)O (stereo partly shown) [I−7, Nδ−[5−ヒドロ−5−(2,3,4−トリヒドロキシブチル)−4−イミダゾロン−2−イル]−L−オルニチン]
relaxation rate (aorta ring (大動脈リング) [1]; 50 μM): 5±2% | inhibition at 50 µM (aorta ring (大動脈リング) [1]; Rattus norvegicus, 50 μM, untreated control (no wortmannin), read-out: relaxation rate): 90 ± 5% | relaxation of phenylephrine contraction with C-PTIO (aorta ring (大動脈リング) [2]): 血管の弛緩が大幅に減弱した | relaxation of phenylephrine contraction with L-NAME (aorta ring (大動脈リング) [2]): 血管の弛緩がほとんど見られなかった | vasorelaxing action after endothelium removal (aorta ring (大動脈リング) [2]): 完全に消失した | relaxation of phenylephrine contraction with indomethacin (aorta ring (大動脈リング) [2]): 血管の弛緩に全く影響を与えなかった | relaxation of phenylephrine contraction with ODQ (aorta ring (大動脈リング) [2]): 血管の弛緩が大幅に減弱した | Akt serine 473 phosphorylation after wortmannin pretreatment [3, 11]: 完全に抑制され | enhancement of Akt serine 473 phosphorylation ([3]; 300 μM): Aktセリン473残基のリン酸化亢進作用を示した | EC50 [4, 10]: 25 µM | eNOS serine 1177 phosphorylation after wortmannin pretreatment [5, 11]: 完全に抑制された | enhancement of eNOS serine 1177 phosphorylation ([5]; 300 μM): eNOSセリン1177残基のリン酸化亢進作用を示した

N=C(N)NCCC[C@H](NCC(=O)[C@@H](O)[C@H](O)[C@H](O)CO)C(=O)O [フラクトシルアルギニン]
vasodilating action (relaxation of phenylephrine contraction) [6]: 血管拡張作用が見出せなかった

CC1(CO)N=C(NCCC[C@H](N)C(=O)O)NC1=O (stereo partly shown) [I−2, Nδ−(5−メチル−5−ヒドロキシメチル−4−イミダゾロン−2−イル)−L−オルニチン]
enhancement of Akt serine 473 phosphorylation ([3]; 100〜500 μM): Aktセリン473残基のリン酸化亢進作用を示した | Akt serine 473 phosphorylation after wortmannin pretreatment [3, 9]: 完全に抑制され | enhancement of eNOS serine 1177 phosphorylation ([5]; 100〜500 μM): 濃度依存的にeNOSセリン1177残基のリン酸化亢進作用を示した | eNOS serine 1177 phosphorylation after wortmannin pretreatment [5, 9]: 完全に抑制された

N=C(N)NCCC[C@H](N)C(=O)O [L−アルギニン]
vasodilating action (relaxation of phenylephrine contraction) [6]: 血管拡張作用が見出せなかった

CC1N=C(NCCC[C@H](N)C(=O)O)NC1=O (stereo partly shown) [I−1, Nδ−(5−ヒドロ−5−メチル−4−イミダゾロン−2−イル)−L−オルニチン]
relaxation rate (aorta ring (大動脈リング) [1]; 50 μM): 10±3% | inhibition at 50 µM (aorta ring (大動脈リング) [1]; Rattus norvegicus, read-out: relaxation rate): 93 ± 3% | relaxation of phenylephrine contraction with C-PTIO (aorta ring (大動脈リング) [2]): 血管の弛緩が大幅に減弱した | relaxation of phenylephrine contraction with L-NAME (aorta ring (大動脈リング) [2]): 血管の弛緩がほとんど見られなかった | vasorelaxing action after endothelium removal (aorta ring (大動脈リング) [2]): 完全に消失した | relaxation of phenylephrine contraction with indomethacin (aorta ring (大動脈リング) [2]): 血管の弛緩に全く影響を与えなかった | relaxation of phenylephrine contraction with ODQ (aorta ring (大動脈リング) [2]): 血管の弛緩が大幅に減弱した | EC50 [4]: 13 µM | Cmax at 0.25 h ([7]; at 15 min after dosing, read-out: maximum plasma concentration): 174 µM | Tmax ([7]; read-out: time of maximum plasma concentration (converted)): 15 min | maximum decrease of mean blood pressure [8]: 12.7 mmHg | time from start of administration to onset of hypotensive action [8]: ~1 min
